Literature values, collected in patent US20210205417A1, “PH 7 INJECTABLE SOLUTION COMPRISING AT LEAST ONE BASAL INSULIN OF WHICH THE PI IS FROM 5.8 TO 8.5 AND A CO-POLYAMINO ACID BEARING CARBOXYLATE CHARGES AND HYDROPHOBIC RADICALS AND A LIMITED AMOUNT OF M-CRESOL” (ADOCIA, priority 2018, published 2021).

Details: patients

For insulin glargine, the “period over which the hypoglycemic effect is almost constant” value is listed as 24 h.
